Series [1] is described as follows: Intrinsic dissolution rate (IDR), Sirius inForm, compressed discs. It is filed as physicochemical. The conditions noted are these: 37° C., pH 5.0 media, 1 hour, 6 mm disc. As for the experimental part: IDR Method Ca. 40 mg material was compressed under 100 kg for 2 minutes to form non-disintegrating discs. The discs were then plugged with a bung so that only one surface was exposed to the media during analysis, and transferred to the dissolution apparatus (Sirius inForm). The volume of the assay was 40 ml and a stir speed of 225 rpm was used. Analysis was performed at 37° C. in pH 5.0 media for 1 hour with UV spectra collected every 30 seconds, using a 20 mm path length probe.

Another series is described as follows: physchem. Particulars: for solubility thermodynamic at 24 h: thermodynamic from solid. It is filed as physicochemical. As to the method:
The suspension was equilibrated at 25° C., on a Heidolph plate shaker set to 750 rpm for 24 hours. The pH of the sample solutions was periodically checked and, if required, adjusted with 0.2M NaOH to ensure that the desired pH was maintained (±0.05) throughout. The pH of the saturated solution after this time was measured and the suspension filtered through a glass fibre C filter (particle retention 1.2 μm) and diluted appropriately.
Quantitation was by HPLC with reference to a standard solution of approximately 0.15 mg/ml in 1:1 MeCN/H2O. Different volumes of the standard, diluted and undiluted sample solutions were injected.
Different volumes of the standard, diluted and undiluted sample solutions were injected. The solubility was calculated using the peak areas determined by integration of the peak found at the same retention time as the principal peak in the standard injection.
Analysis was performed on an Agilent HP1100 series system equipped with a diode array detector and using ChemStation software.

[2] abbreviates: Media DI Water, pH 7.8, 25° C., 24 hours, final pH 5.24-5.42.

Converted amounts (≈) assume the structure as drawn.

As to `Nc1c(Cl)c(F)nc(OCC(=O)O)c1Cl` [Fluroxypyr freeform, Fluroxypyr], the “IDR of second component” value in series [1] was determined as 956.9 μg/min/cm^2. Further, the solubility (thermodynamic) at 24 h in “physchem” (25 °C, pH 4.04, water) turned out to be 290 µg/mL (≈ 1140 µM).
As to `COc1c(Cl)ccc(Cl)c1C(=O)O` [Dicamba freeform, 3,6-Dichloro-2-methoxybenzoic acid], the solubility (thermodynamic) at 24 h in “physchem” (pH 4.0 acetic acid/sodium acetate media, aqueous buffer, pH 4.0 media (42.4 ml 0.1 M acetic acid mixed with 7.6 ml 0.1 M sodium acetate), 25° C., 24 hours, read-out: Thermodynamic solubility of second component) was above 13800 µg/mL.
For `CCc1cc(C)cc(CC)c1-c1c(OC(=O)C(C)(C)C)n2n(c1=O)CCOCC2` [Pinoxaden freeform, [8-(2,6-diethyl-4-methylphenyl)-7-oxo-1,2,4,5-tetrahydropyrazolo[1,2-d][1,4,5]oxadiazepin-9-yl] 2,2-dimethylpropanoate], the “IDR of pinoxaden component” value in series [1] was found to be 69.4 μg/min/cm^2. Also, the solubility (thermodynamic) at 24 h in the series “physchem” (aqueous buffer, pH 4.0 media (42.4 ml 0.1 M acetic acid mixed with 7.6 ml 0.1 M sodium acetate), 25° C., 24 hours, read-out: Thermodynamic solubility of pinoxaden component) was 280 µg/mL (≈ 699 µM); in the series “physchem” (Media DI Water, 25° C., 24 hours, final pH 3.97-4.10, read-out: Thermodynamic solubility of pinoxaden component) it was around 230 µg/mL (≈ 574 µM).
On to “Pinoxaden:2,4-D (1:1) Molecular Complex [Example 3]”, for which, in the series “physchem” (setting [2]), the “Thermodynamic solubility of pinoxaden component” value came out at 200 µg/mL and the “Thermodynamic solubility of second component” value is 120 µg/mL.

As a reminder, the thermodynamic solubility is the concentration in solution at equilibrium with solid.

For the origin of these results see patent US20220369641A1, “MOLECULAR COMPLEXES” (priority 2019, published 2022).
